Data from article PMC12583704 (Signal Transduction and Targeted Therapy, 2025).

Test: Phase 1 study NCT03594422: adverse events graded by NCI CTCAE v4.03
Format: in vivo, human
Protocol: Part 1 was a dose-escalation study to determine the recommended phase 2 dose (RP2D) in solid tumors. […] The initial design was a 3 + 3 dose escalation from 20 mg, but the protocol was amended to randomly enroll and assign patients to starting doses of 30, 40, and 50 mg on the basis of safety data acquired in the CML trial.[20] […] An interactive web response system was used for randomization. Part 2 was a nonrandomized study focusing on patients with SDH-deficient GISTs. […] On the basis of preliminary data from adult patients, adolescent patients with advanced wild-type GISTs were also included in Part 2. The dosage for adolescents was adjusted according to their body weights.
AEs were evaluated at each follow-up visit: on Days 1, 8, 15, and 22 during Cycles 1 and 2; and on Days 1 and 15 in Cycle 3 and all subsequent cycles, up to 30 days after the final dose. All AEs were graded according to the National Cancer Institute Common Terminology Criteria for Adverse Events v4.03. Clinical laboratory investigations for routine blood examinations and serum chemistry parameters were performed during every cycle (on Day 1), during Cycles 1 and 2 (on Days 8, 15, and 22), and 30 days after the last dose of treatment. Urinalysis, coagulation, cardiac troponin I/T, lipase, amylase, and electrocardiographic evaluations were conducted at baseline; during Cycles 1 and 2 (on Days 1 and 15); during Cycles 3, 5, 7, and 9; every three cycles after Cycle 9 (on Day 1); and 14 days after the last dose of treatment. All patients underwent tumor imaging for response assessment via computed tomography or magnetic resonance imaging at screening and every two cycles (8 weeks) until progression or discontinuation. Target and nontarget lesions were assessed per the Response Evaluation Criteria in Solid Tumors version 1.1 (RECIST v1.1).

With `Cc1ccc(C(=O)Nc2ccc(CN3CCN(C)CC3)c(C(F)(F)F)c2)cc1C#Cc1cnc2[nH]ncc2c1` [Olverembatinib, 3-[(1H-pyrazolo[3,4-b]pyridin-5-yl)ethynyl]-4-methyl-N-{4-[(4-methylpiperazin-1-yl)methyl]-3-(trifluoromethyl)phenyl]benzamide] the “TRAE: AST increased” value (30 mg (n = 15), Any grade) was 5 (33.3) n (%), the “TRAE: Anemia” value (30 mg (n = 15), Any grade) was 1 (6.7) n (%) and the “TRAE: Blood creatinine increased” value (30 mg (n = 15), Any grade) was 3 (20.0) n (%). The “TRAE: Constipation” value (30 mg (n = 15), Any grade) was 4 (26.7) n (%), the “TRAE: Fatigue” value (30 mg (n = 15), Any grade) was 4 (26.7) n (%) and the “TRAE: Hypoalbuminemia” value (30 mg (n = 15), Any grade) was 4 (26.7) n (%). The “TRAE: Leukocyte count increased” value (30 mg (n = 15), Any grade) was 6 (40.0) n (%), the “TRAE: Melanocytic nevus” value (30 mg (n = 15), Any grade) was 3 (20.0) n (%) and the “TRAE: Neutrophil count increased” value (30 mg (n = 15), Any grade) was 6 (40.0) n (%). The “TRAE: Platelet count increased” value (30 mg (n = 15), Any grade) was 1 (6.7) n (%), the “TRAE: Pyrexia” value (30 mg (n = 15), Any grade) was 1 (6.7) n (%) and the “TEAE: Abdominal pain” value (30 mg (n = 15), Grade 3-5) was 1 (6.7) n (%). For the same compound, the “TEAE: Alanine aminotransferase increased” value (30 mg (n = 15), Grade 3-5) was 0 n (%), the “TEAE: Anemia” value (30 mg (n = 15), Grade 3-5) was 1 (6.7) n (%) and the “TEAE: Aspartate aminotransferase increased” value (30 mg (n = 15), Grade 3-5) was 0 n (%). The “TEAE: C-reactive protein increased” value (30 mg (n = 15), Grade 3-5) was 0 n (%), the “TEAE: Constipation” value (30 mg (n = 15), Grade 3-5) was 0 n (%) and the “TEAE: Fatigue” value (30 mg (n = 15), Grade 3-5) was 0 n (%). The “TEAE: Hyperuricemia” value (30 mg (n = 15), Grade 3-5) was 1 (6.7) n (%), the “TEAE: Hypoalbuminemia” value (30 mg (n = 15), Grade 3-5) was 0 n (%) and the “TEAE: Leukocyte count increased” value (30 mg (n = 15), Grade 3-5) was 0 n (%). For the same compound, the “TEAE: Melanocytic nevus” value (30 mg (n = 15), Grade 3-5) was 0 n (%), the “TEAE: Neutrophil count increased” value (30 mg (n = 15), Grade 3-5) was 0 n (%) and the “TEAE: Pyrexia” value (30 mg (n = 15), Grade 3-5) was 0 n (%). For the same compound, the TEAEs (30 mg (n = 15), Grade 3-5) was 5 (33.3) n (%), the “TRAE: ALT increased” value (30 mg (n = 15), Grade 3-5) was 0 n (%) and the “TRAE: AST increased” value (30 mg (n = 15), Grade 3-5) was 0 n (%). The “TRAE: Anemia” value (30 mg (n = 15), Grade 3-5) was 0 n (%), the “TRAE: Blood creatinine increased” value (30 mg (n = 15), Grade 3-5) was 0 n (%) and the “TRAE: Constipation” value (30 mg (n = 15), Grade 3-5) was 0 n (%). For the same compound, the “TRAE: Fatigue” value (30 mg (n = 15), Grade 3-5) was 0 n (%), the “TRAE: Hypoalbuminemia” value (30 mg (n = 15), Grade 3-5) was 0 n (%) and the “TRAE: Leukocyte count increased” value (30 mg (n = 15), Grade 3-5) was 0 n (%). For the same compound, the “TRAE: Melanocytic nevus” value (30 mg (n = 15), Grade 3-5) was 0 n (%), the “TRAE: Neutrophil count increased” value (30 mg (n = 15), Grade 3-5) was 0 n (%) and the “TRAE: Platelet count increased” value (30 mg (n = 15), Grade 3-5) was 0 n (%). For the same compound, the “TRAE: Pyrexia” value (30 mg (n = 15), Grade 3-5) was 0 n (%), the “TEAE: Abdominal pain” value (40 mg (n = 32), Any grade) was 7 (21.9) n (%) and the “TEAE: Alanine aminotransferase increased” value (40 mg (n = 32), Any grade) was 13 (40.6) n (%). For the same compound, the “TEAE: Anemia” value (40 mg (n = 32), Any grade) was 14 (43.8) n (%), the “TEAE: Aspartate aminotransferase increased” value (40 mg (n = 32), Any grade) was 14 (43.8) n (%) and the “TEAE: C-reactive protein increased” value (40 mg (n = 32), Any grade) was 8 (25.0) n (%). For the same compound, the “TEAE: Constipation” value (40 mg (n = 32), Any grade) was 13 (40.6) n (%), the “TEAE: Fatigue” value (40 mg (n = 32), Any grade) was 11 (34.4) n (%) and the “TEAE: Hyperuricemia” value (40 mg (n = 32), Any grade) was 17 (53.1) n (%). For the same compound, the “TEAE: Hypoalbuminemia” value (40 mg (n = 32), Any grade) was 5 (15.6) n (%), the “TEAE: Leukocyte count increased” value (40 mg (n = 32), Any grade) was 15 (46.9) n (%) and the “TEAE: Melanocytic nevus” value (40 mg (n = 32), Any grade) was 10 (31.3) n (%). For the same compound, the “TEAE: Neutrophil count increased” value (40 mg (n = 32), Any grade) was 12 (37.5) n (%), the “TEAE: Pyrexia” value (40 mg (n = 32), Any grade) was 17 (53.1) n (%) and the TEAEs (40 mg (n = 32), Any grade) was 32 (100.0) n (%). The “TRAE: ALT increased” value (40 mg (n = 32), Any grade) was 11 (34.4) n (%), the “TRAE: AST increased” value (40 mg (n = 32), Any grade) was 12 (37.5) n (%) and the “TRAE: Anemia” value (40 mg (n = 32), Any grade) was 4 (12.5) n (%). The “TRAE: Blood creatinine increased” value (40 mg (n = 32), Any grade) was 5 (15.6) n (%), the “TRAE: Constipation” value (40 mg (n = 32), Any grade) was 13 (40.6) n (%) and the “TRAE: Fatigue” value (40 mg (n = 32), Any grade) was 9 (28.1) n (%). The “TRAE: Hypoalbuminemia” value (40 mg (n = 32), Any grade) was 3 (9.4) n (%), the “TRAE: Leukocyte count increased” value (40 mg (n = 32), Any grade) was 12 (37.5) n (%) and the “TRAE: Melanocytic nevus” value (40 mg (n = 32), Any grade) was 8 (25.0) n (%). The “TRAE: Neutrophil count increased” value (40 mg (n = 32), Any grade) was 9 (28.1) n (%), the “TRAE: Platelet count increased” value (40 mg (n = 32), Any grade) was 4 (12.5) n (%) and the “TRAE: Pyrexia” value (40 mg (n = 32), Any grade) was 14 (43.8) n (%). For the same compound, the “TEAE: Abdominal pain” value (40 mg (n = 32), Grade 3-5) was 0 n (%), the “TEAE: Alanine aminotransferase increased” value (40 mg (n = 32), Grade 3-5) was 0 n (%) and the “TEAE: Anemia” value (40 mg (n = 32), Grade 3-5) was 2 (6.3) n (%). For the same compound, the “TEAE: Aspartate aminotransferase increased” value (40 mg (n = 32), Grade 3-5) was 0 n (%) and the “TEAE: C-reactive protein increased” value (40 mg (n = 32), Grade 3-5) was 0 n (%).
